Data from PubChem BioAssay (NCI).
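Dose response: 5 concentrations. Exposure: 48 h. Format: 96-well plates. Endpoint: linear interpolation; highest concentration if not reached. TGI: total growth inhibition.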

Legend:
Test in all cases: growth of human tumour cells (NCI), 48 h
RXF-631 renal = test system: RXF-631 renal
HT29 colon = test system: HT29 colon
U251 CNS = test system: U251 CNS
ACHN renal = test system: ACHN renal
EKVX NSCLC = test system: EKVX NSCLC
KM12 colon = test system: KM12 colon
HOP-18 NSCLC = test system: HOP-18 NSCLC
M19-MEL melanoma = test system: M19-MEL melanoma
UACC-257 melanoma = test system: UACC-257 melanoma
KM20L2 colon = test system: KM20L2 colon
K-562 leukemia = test system: K-562 leukemia
CAKI-1 renal = test system: CAKI-1 renal
A549 NSCLC = test system: A549 NSCLC
SW-620 colon = test system: SW-620 colon
UO-31 renal = test system: UO-31 renal
MOLT-4 leukemia = test system: MOLT-4 leukemia
OVCAR-3 ovarian = test system: OVCAR-3 ovarian
HCT-116 colon = test system: HCT-116 colon
SK-MEL-2 melanoma = test system: SK-MEL-2 melanoma
UACC-62 melanoma = test system: UACC-62 melanoma
NCI-H226 lung = test system: NCI-H226 lung
786-0 renal = test system: 786-0 renal
DMS 114 small cell lung = test system: DMS 114 small cell lung
NCI-H460 lung = test system: NCI-H460 lung
SF-268 CNS = test system: SF-268 CNS
SNB-75 CNS = test system: SNB-75 CNS
RPMI-8226 leukemia = test system: RPMI-8226 leukemia
TK-10 renal = test system: TK-10 renal
XF 498 CNS = test system: XF 498 CNS
DLD-1 colon = test system: DLD-1 colon
HL-60(TB) leukemia = test system: HL-60(TB) leukemia
SN12C renal = test system: SN12C renal
SNB-78 CNS = test system: SNB-78 CNS
OVCAR-4 ovarian = test system: OVCAR-4 ovarian
SF-295 CNS = test system: SF-295 CNS
M14 melanoma = test system: M14 melanoma
LXFL 529 NSCLC = test system: LXFL 529 NSCLC
HCC-2998 colon = test system: HCC-2998 colon
OVCAR-8 ovarian = test system: OVCAR-8 ovarian
HOP-62 NSCLC = test system: HOP-62 NSCLC
SK-MEL-28 melanoma = test system: SK-MEL-28 melanoma
IGROV1 ovarian = test system: IGROV1 ovarian
OVCAR-5 ovarian = test system: OVCAR-5 ovarian
MALME-3M melanoma = test system: MALME-3M melanoma
CCRF-CEM leukemia = test system: CCRF-CEM leukemia
COLO 205 colon = test system: COLO 205 colon
SNB-19 CNS = test system: SNB-19 CNS
SK-OV-3 ovarian = test system: SK-OV-3 ovarian
HCT-15 colon = test system: HCT-15 colon
HOP-92 NSCLC = test system: HOP-92 NSCLC
NCI-H522 lung = test system: NCI-H522 lung
NCI-H23 lung = test system: NCI-H23 lung
A498 renal = test system: A498 renal
DMS 273 small cell lung = test system: DMS 273 small cell lung
SK-MEL-5 melanoma = test system: SK-MEL-5 melanoma
SF-539 CNS = test system: SF-539 CNS
RXF 393 renal = test system: RXF 393 renal
LOX IMVI melanoma = test system: LOX IMVI melanoma
SR leukemia = test system: SR leukemia

Measured: TGI

COC(=O)C1CCC(=NC2c3ccccc3-c3ccccc32)N1 (centres undefined)
76.6 µM: HOP-92 NSCLC
58.6 µM: NCI-H522 lung
not listed: SK-MEL-5 melanoma | SF-539 CNS | RXF 393 renal | LOX IMVI melanoma | SR leukemia
> 100 µM: all other assays above

O=C1c2cccc3cccc(c23)C(=O)N1CCCN1CCN(CCCN2C(=O)c3cccc4cccc(c34)C2=O)CC1
not listed: SF-268 CNS | SK-MEL-28 melanoma | NCI-H522 lung | SR leukemia
> 100 µM: all other assays above

Cc1ns/c(=N\C(=S)N(C)C)n1C
not listed: M19-MEL melanoma | OVCAR-3 ovarian | COLO 205 colon | LOX IMVI melanoma
> 100 µM: all other assays above
